{"source": "patent US8431140B2", "about": "“Topical compositions” (priority 2006, dated 2013)", "key": {"[1]": {"details": "intravenous administration of 7.5-10 mg three times daily; cited from earlier work"}, "[2]": {"assay": "Flux of acyclovir gels with different drug concentrations (saturation flux comparison)", "assay_type": "in vitro ADME", "details": "in the vehicle of Table 10a"}}}
{"smiles": "Nc1nc2c(ncn2COCCO)c(=O)[nH]1", "note": "[acyclovir]", "values": [{"measurement": "Serum concentrations of acyclovir", "setting": "[1]", "result": "5000 to 10000", "unit": "ng/mL"}, {"measurement": "Acyclovir concentration giving a saturated formulation post-evaporation", "setting": "[2]", "result": "0.06 % (w/w)"}]}
